Test results taken from patent US11161839B2, “2-quinolone derived inhibitors of BCL6” (Cancer Research Technology Limited, priority 2017, dated 2021).

Experiments:
[1] = target: BCL6-NCOR2(SMRT) corepressor protein-protein interaction (Homo sapiens (Human), UniProt P41182); assay: NanoBRET cell assay in transfected HEK293T cells; format: cell-based; details: further generated data (Table 2b); HEK293T cells, 6 hr; read-out: NanoBRET cell pIC50 (converted)
[2] = target: human BCL6 BTB domain (Trx-6xHis-BCL6) (Homo sapiens (Human), UniProt P41182); assay: HTRF in vitro assay (BCL6 BTB domain / BCOR-AF633 peptide); format: binding; details: for IC50: read-out: HTRF pIC50 (converted)
[3] = further generated data (Table 1b), 1 nM Trx-6xHis-BCL6, 0.5 nM anti-6xHis-Terbium cryptate
[4] = initially generated data (Table 1a), 10 nM Trx-6xHis-BCL6, 1 nM anti-6xHis-Terbium cryptate

| SMILES | HTRF pIC50 [2, 3] | further results |
| --- | --- | --- |
| Cn1c(=O)cc(NC(c2ncccn2)C2CC2)c2cc(Nc3ccnc(Cl)c3C#N)ccc21 (stereo not shown) [Example 10p, 2-chloro-4-((4-((cyclopropyl(pyrimidin-2-yl)methyl)amino)-1-methyl-2-oxo-1,2-dihydroquinolin-6-yl)amino)nicotinonitrile] | 6.44 | IC50 [1]: 2.34 µM |
| CNC(=O)[C@@H](C)Nc1cc(=O)[nH]c2ccc(Nc3ccnc(Cl)c3C#N)cc12 [Example 3p, (R)-2-((6-((2-chloro-3-cyanopyridin-4-yl)amino)-2-oxo-1,2-dihydroquinolin-4-yl)amino)-N-methylpropanamide] | 6.61 | HTRF pIC50 [2, 4]: 6.61 |
| CC(Nc1cc(=O)n(C)c2ccc(Nc3cc(C(=O)O)nc(Cl)c3C#N)cc12)c1ncc(C2CC2)cn1 (stereo not shown) [Example 9p, 6-chloro-5-cyano-4-((4-((1-(5-cyclopropylpyrimidin-2-yl)ethyl)amino)-1-methyl-2-oxo-1,2-dihydroquinolin-6-yl)amino)picolinic acid] | 7.25 | – |
| C[C@@H](Nc1cc(=O)n(C)c2ccc(Nc3ccnc(Cl)c3C#N)cc12)C(=O)NCCc1cnn(C)c1 [Example 3m, (R)-2-((6-((2-Chloro-3-cyanopyridin-4-yl)amino)-1-methyl-2-oxo-1,2-dihydroquinolin-4-yl)amino)-N-(2-(1-methyl-1H-pyrazol-4-yl)ethyl)propanamide] | – | HTRF pIC50 [2, 4]: 6.06 |
| CNC(=O)c1cc(Nc2ccc3c(c2)c(NC2CCC2OC)cc(=O)n3C)c(C#N)c(Cl)n1 (racemic) [Example 23b, rac-6-chloro-5-cyano 4-((4-(((1R,2R)-2-methoxycyclobutyl)amino)-1-methyl-2-oxo-1,2-dihydroquinolin-6-yl)amino)-N-methylpicolinamide or rac-6-chloro-5-cyano-4-((4-(((1R,2S)-2-methoxycyclobutyl)amino)-1-methyl-2-oxo-1,2-dihydroquinolin-6-yl)amino)-N-methylpicolinamide] | – | IC50 [2, 3]: 0.468 µM |
| CCNc1cc(=O)n(CCOCCOC)c2ccc(Nc3ccnc(Cl)c3C#N)cc12 [Example 1o, 2-chloro-4-[[4-(ethylamino)-1-[2-(2-methoxyethoxy)ethyl]-2-oxo-6-quinolyl]amino]pyridine-3-carbonitrile] | – | IC50 [2, 3]: 0.708 µM |
| Cn1c(=O)cc(NC(C)(C)c2ncc(C3CC3)cn2)c2cc(Nc3cc(C(=O)O)nc(Cl)c3C#N)ccc21 [Example 9a, 6-chloro-5-cyano-4-((4-((2-(5-cyclopropylpyrimidin-2-yl)propan-2-yl)amino)-1-methyl-2-oxo-1,2-dihydroquinolin-6-yl)amino)picolinic acid] | 7.74 | – |
| CC(Nc1cc(=O)n(C)c2ccc(Nc3ccnc(Cl)c3C#N)cc12)c1ccncn1 (stereo not shown) [Example 1q, 2-chloro-4-[[1-methyl-2-oxo-4-(1-pyrimidin-4-ylethylamino)-6-quinolyl]amino]pyridine-3-carbonitrile] | 6.29 | HTRF pIC50 [2, 4]: 6.10 |
| CC(Nc1cc(=O)n(C)c2ncc(Nc3ccnc(Cl)c3Cl)cc12)c1ncccn1 (stereo not shown) [Example 6e, 6-((2,3-dichloropyridin-4-yl)amino)-1-methyl-4-((1-(pyrimidin-2-yl)ethyl)amino)-1,8-naphthyridin-2(1H)-one] | 6.28 | – |
| Cn1c(=O)cc(NC(C)(C)c2ncccn2)c2cc(Nc3cc(C(=O)O)nc(Cl)c3C#N)ccc21 [Example 9f, 6-chloro-5-cyano-4-((1-methyl-2-oxo-4-((2-(pyrimidin-2-yl)propan-2-yl)amino)-1,2-dihydroquinolin-6-yl)amino)picolinic acid] | 7.65 | – |
| Cn1c(=O)cc(NC2(CO)CC2)c2cc(Nc3cc(C(=O)O)nc(Cl)c3C#N)ccc21 [Example 9k, 6-chloro-5-cyano-4-((4-((1-(hydroxymethyl)cyclopropyl)amino)-1-methyl-2-oxo-1,2-dihydroquinolin-6-yl)amino)picolinic acid] | 6.35 | – |
| C[C@H](CO)Nc1cc(=O)n(C)c2ccc(Nc3ccnc(Cl)c3C#N)cc12 [Example 3j, (R)-2-chloro-4-((4-((1-hydroxypropan-2-yl)amino)-1-methyl-2-oxo-1,2-dihydroquinolin-6-yl)amino)nicotinonitrile] | 6.14 | HTRF pIC50 [2, 4]: 6.05 |
| COCC(C)(C)Nc1cc(=O)n(C)c2ccc(Nc3cc(C(=O)O)nc(Cl)c3C#N)cc12 [Example 9m, 6-chloro-5-cyano-4-((4-((1-methoxy-2-methylpropan-2-yl)amino)-1-methyl-2-oxo-1,2-dihydroquinolin-6-yl)amino)picolinic acid] | 7.01 | – |
| CNC(=O)c1cc(Nc2ccc3c(c2)c(N[C@H]2CCC[C@H]2OC)cc(=O)n3C)c(C#N)c(Cl)n1 (racemic) [Example 19g, rac-6-chloro-5-cyano-4((4-(((1S,2R)-2-methoxycyclopentyl)amino)-1-methyl-2-oxo-1,2-dihydroquinolin-6-yl)amino)-N-methylpicolinamide] | – | IC50 [2, 3]: 0.851 µM |
| CC[C@@H]1C[C@H]1Nc1cc(=O)n(C)c2ccc(Nc3cc(C(=O)O)nc(Cl)c3C#N)cc12 (racemic) [Example 9i, rac-6-chloro-5-cyano-4-((4-(((1R,2R)-2-ethylcyclopropyl)amino)-1-methyl-2-oxo-1,2-dihydroquinolin-6-yl)amino)picolinic acid] | – | IC50 [2, 3]: 0.245 µM |
| Cn1c(=O)cc(NC2CC2)c2cc(Nc3cc(C(=O)O)nc(Cl)c3C#N)ccc21 [Example 2b, 6-chloro-5-cyano-4-[[4-(cyclopropylamino)-1-methyl-2-oxo-6-quinolyl]amino]pyridine-2-carboxylic acid] | 6.55 | HTRF pIC50 [2, 4]: 6.41 |

More lines, main results first:

| HTRF pIC50 [2, 3] | SMILES | further results |
| --- | --- | --- |
| 6.99 | CC(Nc1cc(=O)n(C)c2ccc(Nc3cc(C(=O)N(C)C)nc(Cl)c3C#N)cc12)c1ncccn1 (stereo not shown) [Example 19b] | IC50 [1]: 5.25 µM |
| 6.84 | CNC(=O)c1cc(Nc2ccc3c(c2)c(NC2(C#N)CC2)cc(=O)n3C)c(C#N)c(Cl)n1 [Example 24a, 6-chloro-5-cyano-4-((4-((1-cyanocyclopropyl)amino)-1-methyl-2-oxo-1,2-dihydroquinolin-6-yl)amino)-N-methylpicolinamide] | – |
| 6.42 | Cn1cc(CNC(=O)C(C)(C)Nc2cc(=O)n(C)c3ccc(Nc4ccnc(Cl)c4C#N)cc23)cn1 [Example 11c, 2-((6--((2-chloro-3-cyanopyridin-4-yl)amino)-1-methyl-2-oxo-1,2-dihydroquinolin-4-yl)amino)-2-methyl-N-((1-methyl-1H-pyrazol-4-yl)methyl)propanamide] | – |
| 6.58 | CC(Nc1nc(=O)n(C)c2ccc(Nc3nc(N4C[C@H](C)C[C@H](C)C4)ncc3Cl)cc12)c1ncccn1 (stereo partly drawn) [Example 12e, 6-((5-chloro-2-((3R,5S)-3,5-dimethylpiperidin-1-yl)pyrimidin-4-yl)amino)-1-methyl-4-((1-(pyrimidin-2-yl)ethyl)amino)quinazolin-2(1H)-one:formic acid (1:1)] | – |
| 6.25 | C[C@@H](Nc1cc(=O)n(C)c2ccc(Nc3nc(N4CCC4)ncc3Cl)cc12)C1CC1 [Example 26a, (R)-6-((2-(azetidin-1-yl)-5-chloropyrimidin-4-yl)amino)-4-((1-cyclopropylethyl)amino)-1-methylquinolin-2(1H)-one: formic acid (1:1)] | – |
| 6.05 | COCCOCC(C)Nc1cc(=O)n(C)c2ccc(Nc3ccnc(Cl)c3C#N)cc12 (stereo not shown) [Example 11g, 2-chloro-4-((4-((1-(2-methoxyethoxy)propan-2-yl)amino)-1-methyl-2-oxo-1,2-dihydroquinolin-6-yl)amino)nicotinonitrile] | – |
